Test results published in paper PMC8597757, “Pharmacokinetic and Safety Profile of the Novel HIV Nonnucleoside Reverse Transcriptase Inhibitor MK-8507 in Adults without HIV” (Antimicrobial Agents and Chemotherapy, 2021).
Read-outs that look alike come from different tables or passages of the source.

Assays:
HIV-1 = experiment: PK target of Ctrough >=6 x IC50 (in vitro potency); conditions: Human immunodeficiency virus 1; Ctrough target expected to achieve antiviral efficacy; meta-analysis ref 20; read-out: 6 × IC50 threshold (PK target for C168hr)
Method: The plasma PK profile of MK-8507 is supportive of QW administration. Following oral administration, MK-8507 is readily absorbed, with a Tmax of ∼2 to 7 h followed by a biphasic decline in plasma concentration. […] Concentration at trough is the PK parameter generally associated with antiviral efficacy of HIV treatment ([20][–][23]). Based on a meta-analysis of Ctrough normalized by in vitro potency and viral load data from other NNRTIs ([20]), a PK target of Ctrough ≥6 × 50% inhibitory concentration (IC50) is a threshold expected to achieve antiviral efficacy as part of combination therapy. […] These PK results support further development of MK-8507 as a QW oral agent for treatment of HIV administered as part of a complete treatment regimen together with islatravir.

[1] = Cross-study formulation comparison, 400 mg tablet vs suspension; type: in vivo, human
Method: Statistical analyses were performed using SAS software version 9.3 (SAS Institute Inc., Cary, NC, USA). […] The least-squares geometric mean (GM) and corresponding 95% CIs obtained from the models were exponentiated to provide estimates for the population GMs and CIs on the original scales. To assess the effect of food, 90% CIs were calculated for the GMR (fed/fasted) of MK-8507 AUC0-∞, Cmax, and C168hr. […] The point estimates and the corresponding 95% CIs were obtained from the model for GM of each formulation; the GMR and 90% CIs comparing tablet to suspension were estimated using the model.

[2] = Single-dose plasma pharmacokinetics of MK-8507 (suspension, study 1; tablet, study 2); type: in vivo; conditions: human, fasted; for AUC(0-inf): n=6, read-out: AUC0-∞ (geometric mean [95% CI]); for AUC(0-t): n=6, read-out: AUC0–168 (geometric mean [95% CI]); for half-life: n=6, read-out: Apparent terminal t½ (geometric mean [%GVC]) (converted); for concentration at 168 h: n=6, read-out: C168hr (geometric mean [95% CI]); for Cmax: n=6, read-out: Cmax (geometric mean [95% CI])
[3] = po, 2 mg, single oral dose 2 mg, suspension
[4] = po, 10 mg, single oral dose 10 mg, suspension
[5] = po, 30 mg, single oral dose 30 mg, suspension
[6] = po, 100 mg, single oral dose 100 mg, suspension
[7] = po, 200 mg, single oral dose 200 mg, suspension
[8] = po, 400 mg, single oral dose 400 mg, suspension
[9] = po, 400 mg, single oral dose 400 mg, tablet
[10] = po, 800 mg, single oral dose 800 mg, tablet
[11] = po, 1200 mg, single oral dose 1,200 mg, tablet

N#Cc1cc(Cl)cc(Oc2c(C(F)(F)F)ncn(Cc3cc(C(F)(F)F)c(=O)[nH]n3)c2=O)c1 [MK-8507]
IC50 (HIV-1): 0.148 µg/mL | PK target concentration for C168hr (6 × IC50) (HIV-1): 300 nM | reduction of Cmax, tablet compared to suspension ([1]; 400-mg dose): 21% | GMR (90% CI) tablet/suspension, C168hr ([1]; 400-mg single dose): 0.93 (0.66, 1.29) | Tmax ([2]; oral, tablet, range across doses, read-out: median Tmax): 4 to 7 h | AUC(0-inf) [2, 3]: 3.82 µM·h | AUC(0-t) [2, 3]: 2.94 µM·h | half-life [2, 3]: 82.9 h | concentration at 168 h [2, 3]: 10 nM | Tmax ([2]; po, 2 mg, single oral dose 2 mg, suspension, n=6, read-out: Tmax (median [min, max])): 2 h | AUC(0-t) [2, 4]: 11.9 µM·h | half-life [2, 4]: 82 h | concentration at 168 h [2, 4]: 30 nM | Tmax ([2]; po, 10 mg, single oral dose 10 mg, suspension, n=6, read-out: Tmax (median [min, max])): 2 h | AUC(0-inf) [2, 5]: 52 µM·h | half-life [2, 5]: 77.7 h | Cmax [2, 5]: 790 nM | AUC(0-inf) [2, 6]: 175 µM·h | AUC(0-t) [2, 6]: 139 µM·h | half-life [2, 6]: 75.9 h | concentration at 168 h [2, 6]: 300 nM | Cmax [2, 6]: 2580 nM | AUC(0-inf) [2, 7]: 374 µM·h | half-life [2, 7]: 83.5 h | concentration at 168 h [2, 7]: 680 nM | Cmax [2, 7]: 5400 nM | Tmax ([2]; po, 200 mg, single oral dose 200 mg, suspension, n=6, read-out: Tmax (median [min, max])): 2.02 h | AUC(0-inf) [2, 8]: 770 µM·h | AUC(0-t) [2, 8]: 619 µM·h | half-life [2, 8]: 69.1 h | Tmax ([2]; po, 400 mg, single oral dose 400 mg, suspension, n=6, read-out: Tmax (median [min, max])): 4 h | AUC(0-inf) [2, 9]: 710 µM·h | AUC(0-t) [2, 9]: 606 µM·h | half-life [2, 9]: 58.3 h | concentration at 168 h [2, 9]: 1280 nM | Cmax [2, 9]: 9090 nM | Tmax ([2]; po, 400 mg, single oral dose 400 mg, tablet, n=6, read-out: Tmax (median [min, max])): 7 h | AUC(0-inf) [2, 10]: 1230 µM·h | AUC(0-t) [2, 10]: 989 µM·h | half-life [2, 10]: 70.9 h | concentration at 168 h [2, 10]: 2100 nM | Cmax [2, 10]: 15400 nM | Tmax ([2]; po, 800 mg, single oral dose 800 mg, tablet, n=6, read-out: Tmax (median [min, max])): 4 h | AUC(0-inf) [2, 11]: 1920 µM·h | AUC(0-t) [2, 11]: 1570 µM·h | half-life [2, 11]: 68.7 h | concentration at 168 h [2, 11]: 3590 nM | Cmax [2, 11]: 23600 nM | Tmax ([2]; po, 1200 mg, single oral dose 1,200 mg, tablet, n=6, read-out: Tmax (median [min, max])): 5 h
